Active and inactive are the calls of the source. The calls are words filed in the database; no cut-off is given here.
Assays:
[1] = test system: Pseudomonas aeruginosa; assay: Bactericidal activity against Pseudomonas aeruginosa JSRI-2 clinical isolate after 12 hrs; type: functional; settings: JSRI-2, 12 h
[2] = test system: Pseudomonas aeruginosa; assay: Antibacterial activity against Pseudomonas aeruginosa JSRI-1 clinical isolate after 12 hrs; type: functional; settings: JSRI-1, 12 h
[3] = test system: Pseudomonas aeruginosa; assay: Antibacterial activity against Pseudomonas aeruginosa JSRI-2 clinical isolate after 12 hrs; type: functional; settings: JSRI-2, 12 h
[4] = test system: Pseudomonas aeruginosa; assay: Bactericidal activity against Pseudomonas aeruginosa JSRI-1 clinical isolate after 12 hrs; type: functional; settings: JSRI-1, 12 h
[5] = Inhibition of Pseudomonas aeruginosa HemO mutant expressed in Escherichia coli BL21(DE3) assessed as decrease in biliverdin-9alpha-dependent IFP1.4 fluorescence after 16 hrs by spectrophotometric method
[6] = test system: Pseudomonas aeruginosa; assay: Bactericidal activity against Pseudomonas aeruginosa PAO1 after 12 hrs; type: functional; settings: PAO1, 12 h
[7] = test system: Pseudomonas aeruginosa; assay: Antibacterial activity against Pseudomonas aeruginosa PAO1 after 12 hrs; type: functional; settings: PAO1, 12 h
[8] = molecular target: T1, Heme oxygenase (Pseudomonas aeruginosa, UniProt O69002); assay: Binding affinity to Pseudomonas aeruginosa HemO by intrinsic fluorescence quenching method
T1 sequence (O69002 whole entry): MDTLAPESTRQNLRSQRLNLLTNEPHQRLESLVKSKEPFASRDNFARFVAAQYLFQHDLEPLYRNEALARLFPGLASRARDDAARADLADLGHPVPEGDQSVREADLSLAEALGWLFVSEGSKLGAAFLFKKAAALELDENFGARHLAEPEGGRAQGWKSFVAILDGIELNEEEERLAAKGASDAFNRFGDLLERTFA

[9] = test system: Escherichia coli; assay: Toxicity in Escherichia coli BL21(DE3) expressing Pseudomonas aeruginosa HemO mutant after 16 hrs by phase contrast microscopy
[10] = molecular target: T2, Heme oxygenase (Pseudomonas aeruginosa) (UniProt O69002); assay: Binding affinity to Pseudomonas aeruginosa HemO by STD NMR method
T2 sequence (whole entry): T1 sequence (O69002 whole entry)

[11] = molecular target: T2, Heme oxygenase (Pseudomonas aeruginosa); assay: Binding affinity to Pseudomonas aeruginosa holo-HemO (53 to 62 residues) at 30 mins by HXMS method

| SMILES | MBC [1] [mg/L] | MIC50 [2] [mg/L] | MIC50 [3] [mg/L] | MBC [4] [mg/L] | EC50 [5] [µM] | MBC [6] [mg/L] | MIC50 [7] [mg/L] | Kd [8] [µM] | Activity [9] | Activity [10] | Activity [11] |
| --- | --- | --- | --- | --- | --- | --- | --- | --- | --- | --- | --- |
| Cl.NC(N)=N/N=C/c1ccc(O)cc1 | > 1000 | 443 | 121 | > 1000 | > 200 | > 1000 | 408 | 4.8 | – | – | – |
| CN(C)c1ccc(/C=N/NC(=N)N)cc1.Cl | 250 | 32.5 | 15.5 | 1000 | 123 | 1000 | 121 | 8.8 | Non-Toxic | – | – |
| Cl.N=C(N)N/N=C/c1ccc(F)cc1 | 500 | 87.4 | 69.4 | 1000 | 77.5 | 1000 | 162 | 14 | – | – | – |
| Cl.NC(N)=N/N=C/c1cccc(Br)c1 | 125 | 23 | 19.4 | 500 | 11.2 | 250 | 51.3 | 12 | – | – | – |
| Cl.NC(N)=N/N=C/c1cccc(O)c1 | – | 391 | 617 | – | > 200 | – | 750 | 21 | – | – | – |
| Cl.N=C(N)N/N=C/c1ccc(Br)cc1 | 62.5 | 19.7 | 13.4 | 250 | 35.6 | 250 | 52.5 | 15 | – | – | – |
| Cl.NC(N)=N/N=C/c1cccc(F)c1 | 250 | 70 | 68.2 | 1000 | 45.1 | 1000 | 66.6 | 12 | – | – | – |
| Cl.N=C(N)N/N=C/c1ccc2ccccc2c1 | 125 | 31.7 | 75.6 | 250 | 43.1 | 250 | 48.4 | – | – | – | – |
| Cl.N=C(N)N/N=C/c1ccccc1F | 250 | 28.6 | 72.9 | > 1000 | > 200 | 1000 | 131 | 11 | – | – | – |
| COc1cccc(/C=N/N=C(N)N)c1.Cl | 500 | 48.6 | 93.4 | 1000 | – | > 1000 | 134 | – | – | – | – |
| Cl.N=C(N)N/N=C/c1ccccc1O | 250 | 58.5 | 79.1 | > 1000 | 102 | > 1000 | 123 | 9.2 | – | Active | – |
| N=C(N)N/N=C/c1ccccc1Br | – | – | – | – | – | – | – | 6.7 | – | – | – |
| Cl.NC(N)=N/N=C/c1ccc(Cl)c(Cl)c1 | 125 | 24.1 | 16.4 | 125 | 20.3 | 125 | 32.3 | 8.4 | – | – | – |
| N=C(N)N/N=C/c1cccc(OCc2ccccc2)c1 | – | – | – | – | – | – | – | – | – | Active | – |
| Cl.N=C(N)N/N=C/c1ccc(Cl)cc1 | 62.5 | 10.7 | 41.6 | 250 | 122 | 500 | 49 | 7 | – | – | – |
| Cl.N=C(N)N/N=C/c1ccc([N+](=O)[O-])cc1 | 125 | 61.4 | 47.2 | 1000 | 64.4 | 1000 | 72.8 | 6.2 | – | – | – |
| Cl.NC(N)=N/N=C/c1cccc(Br)c1O | 250 | 145 | 45.6 | 1000 | 60.3 | 500 | 80.5 | 8 | – | – | – |
| Cl.NC(N)=N/N=C/c1cccc(OCc2ccccc2)c1 | 62.5 | 25.5 | 33.9 | 125 | 34.3 | 125 | 23.2 | – | – | – | – |
| Cl.N=C(N)N/N=C/c1cccc2ccccc12 | 125 | 30.4 | 36.1 | 250 | 52.4 | 250 | 32.1 | 12 | – | – | – |
| COc1ccccc1/C=N/NC(=N)N.Cl | 500 | 38.4 | 125 | > 1000 | 72.7 | 1000 | 99.5 | – | – | Active | – |
| Cl.N=C(N)N/N=C/c1cccc(Cl)c1 | 250 | 19.2 | 33.5 | 500 | 19.4 | 250 | 52.4 | 8.4 | – | – | – |
| CC(C)c1ccc(/C=N/NC(=N)N)cc1.Cl | 125 | 20.6 | 81 | 125 | 11.3 | 125 | 52.3 | 5.7 | – | – | – |
| COc1ccc(/C=N/NC(=N)N)cc1.Cl | 500 | 30.5 | 38 | 1000 | 77.4 | 500 | 113 | 7.8 | – | – | – |
| Cl.NC(N)=N/N=C/c1cc(O)cc(O)c1 | – | 338 | 564 | – | > 200 | – | 1140 | 8 | – | – | – |
| Cl.NC(N)=N/N=C/c1ccccc1Br | 250 | 62.9 | 33.4 | 500 | 35.3 | 500 | 50.1 | – | – | Active | – |
| Cl.NC(N)=N/N=C/c1ccc(-c2ccccc2)cc1 | 62.5 | 34.6 | 38 | 125 | 21.9 | 125 | 59.1 | 6.7 | – | – | Active |

Source: ChEMBL document CHEMBL3853313, “Iminoguanidines as Allosteric Inhibitors of the Iron-Regulated Heme Oxygenase (HemO) of Pseudomonas aeruginosa” (J Med Chem, 2016)
